Laboratory results taken from patent US20070299029A1, “Hepatic stellate cell specific promoter and uses thereof” (Agency for Science, Technology and Research, priority 2005, published 2007).

B1: PDGF-BB: recombinant human platelet derived growth factor-BB, pro-fibrotic cytokine (BioVision) (protein, UniProt P01127 82-190, looked up)
Platelet-derived growth …: SLGSLTIAEPAMIAECKTRTEVFEISRRLIDRTNANFLVWPPCVEVQRCSGCCNNRNVQCRPTQVQLRPVQVRKIEIVRKKPIFKKATVTLEDHLACKCETVAAARPVT

What was measured:
[1] = test system: GFAP-lacZ expression in T6/lacZ/C1 cells; assay: X-gal staining of T6/lacZ/C1 cells treated with TGF-β1, PDGF-BB and LPS; format: cell-based, rat; details: 0.1 to 10 ng/ml, full DMEM, 72 hours, X-gal one hour
Experimental: A lacZ reporter assay kit for cell staining (InvivoGen, CA, USA) was used to detect the reporter gene activity in both stable and transient transfectants. Development of the blue end product was monitored at different time intervals (15, 30, 60, 90, and 120 minutes). The staining results were documented with a digital camera (DP12) attached to an Olympus inverted bright field microscope (IX51).
To determine possible induction of GFAP-lacZ expression by molecules with pro-fibrotic and proinflammatory properties in activated HSC the T6/lacZ/C1 cells were treated with TGF-β1, PDGF-BB and LPS respectively at various concentrations (0, 0.1, 1 and 10 ng/ml) in the full DMEM medium for 72 hours. The cells were then stained with X-gal for one hour and photographed. […] In order to obtain truly quantitative data, a solution assay was employed to measure possible up-regulation of β-galactosidase activity by TGF-β1 in experiments below.

[2] = test system: 2.2 kb hGFAP-lacZ transgene in T6/lacZ/C1 cells; assay: quantitative solution assay of β-galactosidase activity in T6/lacZ/C1 cells; format: cell-based, rat
Experimental: To quantify the β-galactosidase activity in cell extracts reported in FIGS. 4 to 10, an enzyme assay kit (E2000, Promega, Wis., USA) was used to measure the specific activity of P-galactosidase, according to the manufacturer's instructions in a 96-well format. Briefly, the cells were washed twice with 1×PBS buffer (pH7.4), lysed for 15 minutes at room temperature with the reporter lysis buffer, and harvested using a cell scraper. The total cell extracts were appropriately diluted (5-10 fold), and assayed for the enzyme activity. The specific β-galactosidase activity was expressed in milliunit per milliliter (mU/ml) using a standard curve established from the β-galactosidase standard (provided with the kit). The protein concentration was measured with a BCA protein assay kit (Pierce, Ill., USA), and used to further convert the specific β-galactosidase activity from mU/ml to mU/μg total cellular protein. Six independent experiments were performed for each time and concentration data point.
(§1) Cells were seeded into 12-well plates in full DMEM and 500 μg/ml Zeocin. Twelve hours prior to the cytokine treatment, medium was changed so that the cells were allowed to grow in low serum (0.5% FBS) DMEM. The cells at a confluence of 70-80% were incubated with various concentrations (0, 0.1, 1 and 10 ng/ml) of recombinant human TGF-β1, PDGF-BB (BioVision, CA, USA) and 0, 0.1, 1 and 10 μg/ml lipopolysaccharide (LPS E. coli, Sigma) respectively for 0, 2, 8, 16, 24, 48 and 72 hours before they were harvested for β-galactosidase activity assay and real-time RT-PCR GFAP assay.
To quantify specific transgene response to TGF-β1, we first set up an experiment to assess possible effects that serum concentration and culture duration may have on the transgene expression. T6/lacZ/C1 cells were initially grown in DMEM with high serum (10% FBS), and then some of the cells were starved with a DMEM with low serum (0.5% FBS) for 12 hours prior to the addition of TGF-β1 (1 ng/ml). After incubation for various times (0, 2, 8, 24, 48 and 72 hours), cells were harvested for β-galactosidase activity assay. […] After 72 hours, the level slipped to 58% of the value at 0 hour (P<0.001). The assay results were depicted in FIG. 8.
To further dissect the TGF-β1 contribution to the transgene induction, we treated T6/lacZ/C1 cells grown in low serum with various concentrations of TGF-β1 (0, 0.1, 1, 10 ng/ml) and assayed the enzymatic activity for three time points (24, 48 and 72 hours). The assay results were plotted in FIG. 9. […] When the non-treatment groups were normalized to 1 and the magnitude of induction were plotted for the 10 ng/ml treatment groups at all three time points (FIG. 10), a trend of increasing induction with time was apparent.

[3] = test system: endogenous rat GFAP mRNA; assay: real-time RT-PCR for endogenous rat GFAP mRNA in T6/lacZ/C1 cells; format: cell-based
Experimental: as §1
Total RNA was reverse transcribed to cDNA using Taqman's reverse transcription reagent (Cat. #N8O8-0234A total of 400 ng of RNA in 7.7 μl nuclease-free water was added to 2 μl 10× reverse transcriptase buffer, 4.4 μl 25 mM magnesium chloride, 4 μl deoxyNTP mixtures, 1 μl random hexamers, 0.4 μl RNase inhibitor and 0.5 μl reverse transcriptase (50 U/μl) in a final reaction volume of 20 μl. The reaction was performed for 10 min at 25° C. (annealing), 30 min at 48° C. (cDNA synthesis) and 5 min at 95° C. (enzyme denaturation).
Real-time quantitative PCR was carried out with an ABI 7500 Real Time PCR System (Applied Biosystems, CA, USA). One microliter of sample cDNA was used in each PCR reaction, with the housekeeping β-actin gene as a reference for normalization. The primers and probes for rat β-actin and GFAP were purchased from Taqman's assay-on-demand database. […]
(§2) Relative quantitation of the target mRNA was calculated using the comparative threshold cycle (CT) methods as described in the User Bulletin #2 (ABI Prism 7700 Sequence Detection System). CT indicates the fractional cycle number at which the amount of amplified target reaches a fixed threshold within the linear phase of gene amplification. ΔCT, which reflects the difference between CT target and CT β-actin, is inversely correlated to the abundance of mRNA transcripts in the samples. ΔCT for each sample was normalized against control experiment or calibrator and expressed as ΔΔCT. Relative quantitation is given by 2^−ΔΔCT to express the up-regulation or down regulation of the target gene under the treatments compared to the control. Six independent experiments were performed for each data point and three ACT were measured for each experiment.
It was known that GFAP, along with desmin, SMAA, and vimentin, was expressed in the clonal T6 cells (Vogel et al. (2000), J Lipid Res. 41(6):882). […] In order to investigate how the endogenous GFAP expression is regulated by TGF-β1 in the T6/lacZ/C1 cells during different time course, we quantified rat GFAP mRNA level using a real-time RT-PCR method. […] Total RNA was isolated from different cells and quantified as described in Materials and Methods, and the results were depicted in FIG. 11.

[4] = test system: GFAP-lacZ transgene; assay: chemiluminescent β-galactosidase activity assay of GFAP-lacZ transgene expression in T6/GFAP-lacZ cells; format: cell-based, rat; details: 10 ng/ml PDGF-BB, 48 hours, low serum DMEM
Experimental: (§3) Cells were initially seeded in 12-well plates in DMEM supplemented with 10% FBS and weaned to a low serum DMEM (0.5% FBS) at a confluence of 70-80% for 12 hours of adaptation. Cells were then incubated with different concentrations of compounds for various amounts of time before being assayed for β-galactosidase activity and GFAP mRNA. For compound attenuation studies, cells were treated with a pro-fibrotic cytokine (TGF-β1 or PDGF-BB) either sequentially or concurrently with a compound (EGCG or genistein). In the sequential scheme, cells were first treated with a cytokine for 1-3 days, then the cytokine-containing culture medium was replaced with a fresh medium containing a particular compound only for various times. Details of the cytokine/compound treatments can be found in the individual figure legends.
A lacZ reporter assay kit for cell staining (InvivoGen, CA, USA) was used to detect the reporter gene activity in T6/GFAP-lacZ cells treated with EGCG or genistein. The staining results were documented with a digital camera (DP12) attached to an Olympus inverted bright field microscope (IX51) after development for 60 min. For quantification, the β-galactosidase activity in cell extracts was measured using a chemiluminescent assay kit (Roche, Mannheim, Germany) in a 96-well plate format, according to the manufacturer's instructions. Briefly, cells were washed twice with ice-cold 1×PBS (pH 7.4), lysed for 30 minutes at room temperature with the lysis buffer, and supernatant was collected for assays. Protein concentration was determined with a BCA protein assay kit (Pierce, Ill., USA). Specific β-galactosidase activity was obtained by normalizing against total cellular protein content.

[5] = test system: endogenous rat GFAP mRNA; assay: real-time RT-PCR for endogenous rat GFAP mRNA in T6/GFAP-lacZ cells; format: cell-based; details: 10 ng/ml PDGF-BB, 24 hours, low serum DMEM
Experimental: as §3
Total RNA was reverse-transcribed to cDNA using Taqman's reverse transcription reagent (Applied Biosystems, CA, USA). A total of 200 ng of RNA in 7.7 μl of nuclease-free water was added to 2 μl 10× reverse transcriptase buffer, 4.4 μl 25 mM magnesium chloride, 4 μl deoxyNTP mixtures, 1 μl random hexamers, 0.4 μl RNase inhibitor and 0.5 μl reverse transcriptase (50 U/μl) in a final reaction volume of 20 μl. The reaction was performed for 10 min at 25° C. (annealing), 30 min at 48° C. (cDNA synthesis) and 5 min at 95° C. (enzyme denaturation).
Real-time quantitative PCR was carried out with an ABI 7500 Fast Real-time PCR System (Applied Biosystems, CA, USA). Two micro liters of sample cDNA were used in each PCR reaction, with β-actin gene as a reference for normalization. The primers and probes for rat β-actin and GFAP were ordered from Taqman's assay-on-demand database. The PCR reaction was performed under a default profile consisting of 95° C. for 20 seconds (enzyme denaturation) and 40 cycles of amplification (denaturation 3 seconds, annealing and extension 30 seconds). Some of the real-time RT-PCR reactions were separated on an agarose gel for visual confirmation of discrete products (data not shown).
as §2, with “samples. ACT” for “samples. ΔCT”, “or down-regulation” for “or down regulation”, “control.” for “control. Six independent experiments were performed for each data point and three ACT were measured for each experiment.”

[6] = 10 ng/ml TGF-β1, low serum, 72 hours

| Molecule | X-gal blue staining compared to the untreated [1] | specific β-galactosidase activity ([2]; 1 ng/ml TGF-β1, 0.5% FBS, 24 hour (peak)) | transgene expression level relative to 0 hour ([2]; 1 ng/ml TGF-β1, 0.5% FBS, 48 hours) | transgene expression level, % of the value at 0 hour ([2]; 1 ng/ml TGF-β1, 0.5% FBS, 72 hours) | induction of β-galactosidase activity ([2]; 10 ng/ml TGF-β1, low serum, 24, 48 and 72 hours) | absolute enzymatic (β-galactosidase) activity [2, 6] | magnitude of induction of β-galactosidase activity vs non-treatment group (normalized to 1) [2, 6] | GFAP mRNA level relative to basal level at 0 hour (normalized to 1) ([3]; 1 ng/ml TGF-β1, 16 hour) | GFAP mRNA level relative to basal level at 0 hour (normalized to 1) ([3]; 1 ng/ml TGF-β1, 48 hours) | GFAP mRNA level relative to basal level at 0 hour (normalized to 1) ([3]; 1 ng/ml TGF-β1, 72 hours) | GFAP mRNA level relative to basal level ([3]; 1 ng/ml TGF-β1, within the first 24 hours (except 16 hour)) | induction of transgenic GFAP-lacZ expression [4] | induction of endogenous GFAP [5] |
| --- | --- | --- | --- | --- | --- | --- | --- | --- | --- | --- | --- | --- | --- |
| TGF-β1: recombinant human transforming growth factor-β1, pro-fibrotic cytokine (BioVision) | more intense blue staining | 0.52 mU/μg | dropped to the same level as at 0 hour | 58% | Significant induction | 0.43 mU/μg | nearly two fold | 0.5 fold | 7 fold | 8.5 fold | remained steady | – | – |
| B1 | less pronounced response | – | – | – | – | – | – | – | – | – | – | 24% | 53% |
